Publication PMC7587356, “High-Throughput Screening for Inhibitors of the SARS-CoV-2 Protease Using a FRET-Biosensor” (Molecules, 2020)
Where a name gives a salt, the structure may show the parent alone. Read-outs that look alike come from different tables or passages of the source.

Biological target: SARS-CoV-2 3CLpro (Severe acute respiratory syndrome coronavirus 2, UniProt P0DTD1)
Assay: biochemical
Format: biochemical
Design: Replicate_1 / Replicate_2 / mean / mean (LOPAC_screen_w_protease): unit not given here
Conditions: for inhibition at 5 µM: 4 h
[1] = sheet LOPAC_screen_w_protease, primary screen with protease, mean of two replicates
[2] = sheet LOPAC_screen_w_protease, primary screen with protease, replicate 1
[3] = sheet LOPAC_screen_w_protease, primary screen with protease, replicate 2
[4] = sheet LOPAC_screen_w_protease, primary screen with protease, mean of two replicates, read-out: mean
[5] = sheet LOPAC_screen_w_protease, primary screen with protease, replicate 1, read-out: Replicate_1
[6] = sheet LOPAC_screen_w_protease, primary screen with protease, replicate 2, read-out: Replicate_2
[7] = sheet LOPAC_screen_w_protease, primary screen with protease, 5 µM, mean of two replicates
[8] = sheet LOPAC_screen_w_protease, primary screen with protease, 5 µM, replicate 1
[9] = sheet LOPAC_screen_w_protease, primary screen with protease, 5 µM, replicate 2
[10] = sheet LOPAC_screen_w_protease, LOPAC1280 primary screen with protease, 5 µM compound, mean of the two replicates, read-out: mean
[11] = sheet LOPAC_screen_w_protease, LOPAC1280 primary screen with protease, 5 µM compound, replicate 1, read-out: Replicate_1
[12] = sheet LOPAC_screen_w_protease, LOPAC1280 primary screen with protease, 5 µM compound, replicate 2, read-out: Replicate_2
[13] = sheet LOPAC_screen_w_protease, primary screen of LOPAC1280 at 5 µM with protease, mean of the two replicates
[14] = sheet LOPAC_screen_w_protease, primary screen of LOPAC1280 at 5 µM with protease, replicate 1
[15] = sheet LOPAC_screen_w_protease, primary screen of LOPAC1280 at 5 µM with protease, replicate 2
[16] = LOPAC1280 primary screen with protease, 5 µM compound, replicate 1, read-out: Replicate_1 (LOPAC_screen_w_protease)
[17] = LOPAC1280 primary screen with protease, 5 µM compound, replicate 2, read-out: Replicate_2 (LOPAC_screen_w_protease)
[18] = LOPAC1280 primary screen with protease, 5 µM compound, mean of the two replicates
[19] = sheet LOPAC_screen_w_protease, LOPAC1280 at 5 µM, mean of two replicates
[20] = sheet LOPAC_screen_w_protease, LOPAC1280 at 5 µM, replicate 1
[21] = sheet LOPAC_screen_w_protease, LOPAC1280 at 5 µM, replicate 2
[22] = sheet LOPAC_screen_w_protease, primary screen with protease, compound at 5 µM, mean of two replicates
[23] = sheet LOPAC_screen_w_protease, primary screen with protease, compound at 5 µM, replicate 1
[24] = sheet LOPAC_screen_w_protease, primary screen with protease, compound at 5 µM, replicate 2
[25] = LOPAC1280 primary screen with protease, 5 µM compound, mean of two replicates
[26] = LOPAC1280 primary screen with protease, 5 µM compound, replicate 1
[27] = LOPAC1280 primary screen with protease, 5 µM compound, replicate 2
[28] = sheet LOPAC_screen_w_protease, LOPAC1280 primary screen at 5 µM, with protease, replicate 1
[29] = sheet LOPAC_screen_w_protease, LOPAC1280 primary screen at 5 µM, with protease, replicate 2
[30] = sheet LOPAC_screen_w_protease, primary screen of LOPAC1280 at 5 µM with protease, mean of the two replicates, read-out: mean
[31] = sheet LOPAC_screen_w_protease, primary screen of LOPAC1280 at 5 µM with protease, replicate 1, read-out: Replicate_1
[32] = sheet LOPAC_screen_w_protease, primary screen of LOPAC1280 at 5 µM with protease, replicate 2, read-out: Replicate_2

O=C(O)CNC(=O)C(CS)Cc1ccccc1 (racemic) [DL-Thiorphan]
inhibition at 5 µM (sheet LOPAC_screen_w_protease, primary screen with protease, 5 µM, mean of two replicates, read-out: mean): 0.357% | inhibition at 5 µM (sheet LOPAC_screen_w_protease, primary screen with protease, 5 µM, replicate 1, read-out: Replicate_1): -0.479% | inhibition at 5 µM (sheet LOPAC_screen_w_protease, primary screen with protease, 5 µM, replicate 2, read-out: Replicate_2): 1.19%

CCN1CCC[C@H]1CNC(=O)c1c(OC)ccc(I)c1O [S(-)-IBZM]
mean [1]: 2.422 | Replicate_1 [2]: 3.86 | Replicate_2 [3]: 0.9843

CC[C@H](CO)Nc1nc(NCc2ccccc2)c2ncn(C(C)C)c2n1 [Roscovitine]
mean (LOPAC_screen_w_protease): 1.3343 | inhibition at 5 µM (read-out: Replicate_1 (LOPAC_screen_w_protease)): 3.12% | inhibition at 5 µM (read-out: Replicate_2 (LOPAC_screen_w_protease)): -0.448%

CN1C(C)(C)CCCC1(C)C [Pempidine tartrate]
inhibition at 5 µM [4]: 2.3% | inhibition at 5 µM [5]: 2.5% | inhibition at 5 µM [6]: 2.11%

CCN(CC)CCCCCCCCOC(=O)c1cc(OC)c(OC)c(OC)c1.Cl [TMB-8 hydrochloride]
mean [7]: -0.545 | Replicate_1 [8]: 0.4949 | Replicate_2 [9]: -1.585

COC[C@H]1OC(=O)c2coc3c2[C@@]1(C)C1=C(C3=O)[C@@H]2CCC(=O)[C@@]2(C)C[C@H]1OC(C)=O [Wortmannin from Penicillium funiculosum]
mean [1]: 2.471 | Replicate_1 [2]: 2.1754 | Replicate_2 [3]: 2.767

Nc1nc(Nc2ccccc2)nc2c1ncn2[C@@H]1O[C@H](CO)[C@@H](O)[C@H]1O [2-Phenylaminoadenosine]
mean [7]: -0.1756 | Replicate_1 [8]: -0.3497 | Replicate_2 [9]: -0.001377

(-)-3-Methoxynaltrexone hydrochloride
mean (sheet LOPAC_screen_w_protease, LOPAC1280 primary screen with protease, 5 µM compound, mean of the two replicates): 5.384 | Replicate_1 (sheet LOPAC_screen_w_protease, LOPAC1280 primary screen with protease, 5 µM compound, replicate 1): 4.034 | Replicate_2 (sheet LOPAC_screen_w_protease, LOPAC1280 primary screen with protease, 5 µM compound, replicate 2): 6.735

CC1COc2c(N3CCN(C)CC3)c(F)cc3c(=O)c(C(=O)O)cn1c23 (centres unmarked) [Ofloxacin]
inhibition at 5 µM [10]: 6.37% | inhibition at 5 µM [11]: 5.61% | inhibition at 5 µM [12]: 7.14%

C/C=C1\C(=O)C[C@H]2[C@@H]3CCC4=CC(=O)CC[C@]4(C)[C@H]3CC[C@]12C [(Z)-Gugglesterone]
mean [13]: 3.352 | Replicate_1 [14]: 5.164 | Replicate_2 [15]: 1.54

NC(=NCc1ccccc1)NC(=O)c1nc(Cl)c(N)nc1N [Benzamil hydrochloride]
inhibition at 5 µM [16]: 1.66% | inhibition at 5 µM [17]: 1.83% | mean (LOPAC_screen_w_protease) [18]: 1.743

N[C@@H](Cc1c[nH]c2ccccc12)C(=O)O [L-Tryptophan]
inhibition at 5 µM (sheet LOPAC_screen_w_protease, LOPAC1280 primary screen at 5 µM, with protease, mean of the two replicates, read-out: mean): 0.58% | inhibition at 5 µM (sheet LOPAC_screen_w_protease, LOPAC1280 primary screen at 5 µM, with protease, replicate 1, read-out: Replicate_1): 2.12% | inhibition at 5 µM (sheet LOPAC_screen_w_protease, LOPAC1280 primary screen at 5 µM, with protease, replicate 2, read-out: Replicate_2): -0.955%

CNC1(C)C2CCC(C2)C1(C)C (centres unmarked) [Mecamylamine hydrochloride]
inhibition at 5 µM [10]: 4.7% | inhibition at 5 µM [11]: 5.3% | inhibition at 5 µM [12]: 4.09%

CCCCCCCCCCCCCCCC(=O)NCC(COP(=O)([O-])OCC[N+](C)(C)C)OCC (racemic)
mean [13]: 3.428 | Replicate_1 [14]: 7.48 | Replicate_2 [15]: -0.6245

NC(=O)c1cnccn1 [Pyrazinecarboxamide]
mean [19]: 0.9233 | Replicate_1 [20]: 1.572 | Replicate_2 [21]: 0.2741

C[C@H]1O[C@@H](n2cc(F)c(=O)[nH]c2=O)[C@H](O)[C@@H]1O [5-fluoro-5'-deoxyuridine]
mean [22]: 2.678 | Replicate_1 [23]: 3.684 | Replicate_2 [24]: 1.673

CCN(CC)CCOCCOC(=O)C1(c2ccccc2)CCCC1 [Carbetapentane citrate]
inhibition at 5 µM [16]: 2.35% | inhibition at 5 µM [17]: 1.05% | mean (LOPAC_screen_w_protease) [25]: 1.698

CN(C)[C@@H]1C(O)=C(C(N)=O)C(=O)[C@@]2(O)C(O)=C3C(=O)c4c(O)ccc(Cl)c4[C@@H](O)[C@H]3C[C@@H]12 [Demeclocycline hydrochloride]
inhibition at 5 µM [10]: 4.52% | inhibition at 5 µM [11]: 7.2% | inhibition at 5 µM [12]: 1.84%

CC[N+](C)(C)c1cccc(O)c1 [Edrophonium chloride]
inhibition at 5 µM [4]: 2.25% | inhibition at 5 µM [5]: 5.19% | inhibition at 5 µM [6]: -0.704%

NC(=O)NO [Hydroxyurea]
mean [22]: 2.8429 | Replicate_1 [23]: 4.9936 | Replicate_2 [24]: 0.6922

CCc1c(C(=O)OC)ncc2[nH]c3cc(OC)c(OC)cc3c12
mean (LOPAC_screen_w_protease) [18]: 2.118 | Replicate_1 (LOPAC_screen_w_protease) [26]: 4.217 | Replicate_2 (LOPAC_screen_w_protease) [27]: 0.01945

Cl.Fc1ccc(CN(C2=NCCN2)c2c(Cl)cccc2Cl)cc1 [IMID-4F hydrochloride]
mean [7]: -0.6347 | Replicate_1 [8]: -0.8698 | Replicate_2 [9]: -0.3997

CC1=C(CC(=O)O)c2cc(F)ccc2/C1=C\c1ccc(S(C)(=O)=O)cc1 [Sulindac sulfone]
mean (sheet LOPAC_screen_w_protease, LOPAC1280 primary screen at 5 µM, with protease, mean of two replicates): -1.258 | Replicate_1 [28]: 0.6759 | Replicate_2 [29]: -3.192

Cc1ccc([N+](=O)[O-])cc1S(=O)(=O)N(C)C [BRL 50481]
mean (LOPAC_screen_w_protease) [25]: 1.647 | Replicate_1 (LOPAC_screen_w_protease) [26]: 1.025 | Replicate_2 (LOPAC_screen_w_protease) [27]: 2.268

CCCN(CCC)C(=O)Cc1c(-c2ccc(Cl)cc2)nc2c(Cl)cc(Cl)cn12 [CB34]
Replicate_1: 2.062 | Replicate_2: 2.367 | mean: 2.2145

CCCCOc1cc(CC2CNC(=O)N2)ccc1OC (centres unmarked) [Ro 20-1724]
mean (LOPAC_screen_w_protease) [18]: 1.901 | Replicate_1 (LOPAC_screen_w_protease) [26]: 0.9131 | Replicate_2 (LOPAC_screen_w_protease) [27]: 2.888

O=c1c(-c2ccc(O)cc2)coc2cc(O)ccc12 [Daidzein]
inhibition at 5 µM (read-out: Replicate_1): 5.3% | inhibition at 5 µM (read-out: Replicate_2): 1.03% | inhibition at 5 µM (read-out: mean): 3.16%

NC(=S)c1ccc[n+]([C@@H]2O[C@@H](COP(=O)([O-])OP(=O)(O)OC[C@H]3O[C@@H](n4cnc5c(N)ncnc54)C(OP(=O)([O-])O)[C@H]3O)C(O)C2O)c1.[Na+] (some centres unmarked) [Thio-NADP sodium]
mean (LOPAC_screen_w_protease) [25]: 1.323 | Replicate_1 (LOPAC_screen_w_protease) [26]: 2.439 | Replicate_2 (LOPAC_screen_w_protease) [27]: 0.2062

Cl.Clc1cc(I)cc(Cl)c1NC1=NCCN1 [p-Iodoclonidine hydrochloride]
mean [1]: 2.258 | Replicate_1 [2]: 3.3723 | Replicate_2 [3]: 1.143

C=CC[C@H](N)C(=O)O [L-allylglycine]
mean [7]: 0.3305 | Replicate_1 [8]: -0.7105 | Replicate_2 [9]: 1.372

CN[C@H](CC(=O)O)C(=O)O [N-Methyl-D-aspartic acid]
inhibition at 5 µM [30]: 3.42% | inhibition at 5 µM [31]: 4.04% | inhibition at 5 µM [32]: 2.81%

CC1CCN=C(N)S1.Cl (racemic) [(±)-AMT hydrochloride]
Replicate_1: 3.477 | Replicate_2: 0.9466 | mean: 2.212

CC(C)NCC(O)c1ccc(O)c(O)c1.Cl (racemic) [(±)-Isoproterenol hydrochloride]
Replicate_1 [23]: 3.707 | Replicate_2 [24]: 1.7371

Cl.NC1(C(=O)O)CC1
mean [19]: 1.084 | Replicate_1 [20]: 2.432 | Replicate_2 [21]: -0.2629

CCCn1c(=O)c2[nH]c(C3CCCC3)nc2n(CCC)c1=O [8-Cyclopentyl-1,3-dipropylxanthine]
mean (LOPAC_screen_w_protease) [25]: 1.568 | Replicate_1 (LOPAC_screen_w_protease) [26]: 3.936 | Replicate_2 (LOPAC_screen_w_protease) [27]: -0.7999

COc1ccc2[nH]c3c(c2c1)CCNC3
mean (sheet LOPAC_screen_w_protease, LOPAC1280 primary screen at 5 µM, with protease, mean of the two replicates): 0.4216 | Replicate_1 [28]: 0.4542 | Replicate_2 [29]: 0.3889

CC(=O)c1ccc(S(=O)(=O)NC(=O)NC2CCCCC2)cc1 [Acetohexamide]
inhibition at 5 µM [30]: 3.3% | inhibition at 5 µM [31]: 2.5% | inhibition at 5 µM [32]: 4.1%
